Experimental data as given in US11452781B2, “Method of preventing and treating type 1 diabetes, allograft rejection and lung fibrosis (by targeting the ATP/P2X7R axis)” (CHILDREN'S MEDICAL CENTER CORPORATION, priority 2013, dated 2022).
“And” between values parts separate entries of the source, which are not always exact repeats. Identical values can stand only once. “Also recorded” adds a separate entry of the source.

Columns and labels:
[1] = test system: C57BL/6 mice transplanted with BALB/c hearts; type: in vivo, mouse; design: long-term cardiac transplant survival (>100 days), share of recipients: dose or concentration left out as unconfirmed; conditions: oATP i.p. daily for 14 days
Procedure: The effect of P2X7R targeting in preventing cardiac transplant rejection was tested using the P2X7R inhibitor oATP.
The effect of P2X7R targeting in preventing cardiac transplant rejection was tested by using the P2X7R inhibitor oATP.

[2] = test system: C57BL/6 mice transplanted with BALB/c islets; experiment: Allogeneic islet transplantation, BALB/c islets into diabetic C57BL/6 mice: graft survival; type: in vivo, mouse
[3] = Phosphorylation of T-cell signaling molecules in activated CD4+ T cells (Luminex/Milliplex, Western blot); type: cell-based, mouse
Procedure: (§1) 60 minutes after anti-CD3-Ig and anti-CD28-Ig mediated activation, cells were lysed and the phosphorylation status of CREB, Erk, Akt, JNK, p38, p70 S6 Kinase, STAT3, and STAT5A/B was assessed using the Millipore Milliplex Cell Signaling Assay. […] Data were confirmed by western blot (FIG. 6D).
(§2) Several key components of T-cell receptor signaling involved in the alloimmune response were examined, and the phosphorylation kinetics following in vitro anti-CD3-Ig/anti-CD28-Ig-mediated CD4+ T-cell activation was evaluated by using the Luminex assay. […] The inventors first confirmed that Colivelin (Col) was able to restore the activation-induced phosphorylation of STAT3 in a dose-dependent manner in oATP-treated CD4+ T cells by Western blotting. […] The effect of oATP and Colivelin on STAT3 phosphorylation and T-cell function was also evaluated following cardiac transplantation.

[4] = test system: STAT3; experiment: as above; type: cell-based, mouse; conditions: 60 minutes after activation
Procedure: as §1, §2

[5] = test system: naïve Th0 cells; experiment: Th1/Th17 generation and differentiation assay; type: cell-based, mouse; conditions: 100 μM oATP
Procedure: Naïve Th0 cells were differentiated into Th1 or Th17 cells, and IFN-γ^+ and IL-17^+ cells were quantified by flow cytometry. Addition of 100 μM oATP inhibited the conversion of naïve Th0 cells into Th1 (FIGS. 6A-6B) and Th17 cells (FIGS. 6C-6D).
To address the mechanisms underlying P2X7R targeting mediated inhibition of cardiac transplant rejection, the inventors analyzed the effect of P2X7R targeting on T-cell activation and Th1/Th17 differentiation in vitro. […] The effect of in vitro P2X7R targeting with oATP during CD4+ T-cell activation was tested. […] Second, in a T-cell proliferation assay, carboxyfluorescein diacetate succinimidyl ester-labeled naïve CD4+ T cells were stimulated for 96 hours with 0.5 μg/mL anti-CD3-Ig and anti-CD28-Ig, and treatment with 100 μM oATP diminished CD4+ T cell proliferation in comparison with controls. […] The inventors next tested the effect of in vitro P2X7R targeting during a Th1/Th17 generation and differentiation assay. […] P2X7R targeting with oATP inhibited Th0 conversion into both Th1 and Th17, as assessed by the percentage of IFN-γ+ and IL-17+ cells, respectively. […] In a Th1/Th17 generation assay, pmY-P2X7R CD4+ T cells seemed to display increased differentiation capacity in comparison with pmY-mock CD4+ T cells, as assessed by T-bet and ROR-γ expression.

Substance: periodate-oxidized ATP [oATP]
- long-term cardiac transplant survival (>100 days), share of recipients [1]: 80%
- islet allograft survival (in words) ([2]; mouse, in vivo): prolongs graft survival
- mice with long-term graft function at 100 days (of n) ([2]; mouse, in vivo): 3 out of 10 and 3 of 10
- islet allograft mean survival time (MST) ([2]; oATP daily i.p. 14-15 days, rapamycin 0.1 mg/kg 10 days): 22 days
- phosphorylation of JNK/SAPK1, p70/S6, or STAT5 [3]: unaffected
- activation-induced STAT3 phosphorylation [4]: reduced level; also recorded: prevented phosphorylation of STAT3; also recorded: significant inhibition
- conversion of naïve Th0 cells into Th1 (IFN-γ+ cells) [5]: inhibited
- conversion of naïve Th0 cells into Th17 (IL-17+ cells) [5]: inhibited
